In brackets after ≈: the same amount, converted by molar mass. Where a name gives a salt, the structure may show the parent alone. Read-outs that look alike come from different tables or passages of the source. Non-standard residues stand in square brackets, D forms with d. Residues, ends and D or L forms follow the SMILES beside them. *: point of attachment. Phe(4-F) = N[C@@H](Cc1ccc(F)cc1)C(=O)O; Hyp = O=C(O)[C@@H]1C[C@@H](O)CN1; Octanoyl = CCCCCCCC(=O)*; Piperidide = C1CCN(*)CC1; Bn = c1ccc(C*)cc1

The values that follow come from patent US20100087466A1, “NOVEL SMALL MOLECULE DNAK INHIBITORS” (priority 2008, published 2010).

Experiment [1] relates to H. influenzae (Strain 109). The experiment can be described thus: H. influenzae Inhibition Assay (broth microdilution MIC), Strain 109. Particulars: for MIC: Haemophilus influenzae. The experiment is classed as cell-based. The procedure: (§1) An in vitro assay may be conducted by determining the minimum inhibitory concentration (MIC) of the small molecules to Gram negative bacteria, such as H. influenza. H. influenzae MICs are determined using CLSI recommended broth microdilution methodology (M7-A7). Test agent powders are dissolved in DMSO, serial dilutions are also made in DMSO and 1:100 dilutions of each are then prepared in Haemophilus Test media (HTM). 100 μL of each final dilution are transferred to appropriate wells of a 96 well microtiter plate. The test organism is suspended in saline or Mueller Hinton broth to an organism density equivalent to a 0.5 McFarland Standard. 300 μL of the H. influenzae suspension is transferred to 11 mLs of HTM and 10 μL of this suspension is transferred to each well of the microtiter plate. […] Colony counts are determined for each inoculum and expected range of final organism concentration is 3-7×10^5 CFU/mL. One of the recommended H. influenzae quality control strains (ATCC 49247 or 49766) is also tested on each testing day.
as §1, with “H.” for “An in vitro assay may be conducted by determining the minimum inhibitory concentration (MIC) of the small molecules to Gram negative bacteria, such as H. influenza. H.”
(§2) Pyrrhocoricin was used as a control. MIC is defined as the lowest concentration of an anti-bacterial agent that will inhibit the visible growth of a microorganism after overnight incubation.
(In general: Dilution methods test growth across graded concentrations, often in twofold steps.)

Experiment [2] relates to H. influenzae (Strain 110). The experiment can be described thus: H. influenzae Inhibition Assay (broth microdilution MIC), Strain 110. The experiment is classed as cell-based. Particulars: for MIC: Haemophilus influenzae. The protocol: as §1
as §1, with “H.” for “An in vitro assay may be conducted by determining the minimum inhibitory concentration (MIC) of the small molecules to Gram negative bacteria, such as H. influenza. H.”
as §2

The next experiment concerns the target DnaK (Escherichia coli, UniProt P0A6Y8). The experiment can be described thus: DnaK Inhibition Assay (DnaK induced refolding of denatured firefly luciferase). Format: biochemical, E. coli. Particulars: DnaK 200 nM, DnaJ 100 nM, GrpE 400 nM. The protocol:
Inhibition of the bacterial DnaK chaperone system may be evaluated by inhibition of the DnaK induced refolding of denatured firefly luciferase. More specifically, firefly luciferase is denatured by treatment with 8N guanidium hydrochloride at room temperature for 30 mins and then 5° C. for 1 h. After dilution into cold MOPS buffer augmented with ATP (2.5 mM) and DTT (12.5 mM) and standing for a further hour, the denatured luciferase is refolded by addition to a mixture of chaperone proteins in MOPS buffer, resulting in a reaction mixture containing denatured luciferase (24 nM), DnaK (200 nM), DnaJ (100 nM) and GrpE (400 nM). The extent of refolding is determined by addition of a luciferase substrate and measurement of the emitted chemoluminescence. In this format the substrate is the commercially available luciferase “Steady-Glo” reagent from Promega, Inc. Inhibition of DnaK induced refolding is determined by premixing the chaperone proteins with the test agent at concentrations of test agent ranging from 1-100 μg/mL. The extent of refolding is compared to that with no test reagent, and the IC50 is estimated by fitting the data to a standard sigmoidal dose-response curve.
Inhibition of the bacterial DnaK chaperone system was evaluated by inhibition of the DnaK induced refolding of denatured firefly luciferase. Firefly luciferase was denatured by treatment with 8N guanidium hydrochloride at room temperature for 30 mins and then 5° C. for 1 h. After dilution into cold MOPS buffer augmented with ATP (2.5 mM) and DTT (12.5 mM) and standing for a further hour, the denatured luciferase was refolded by addition to a mixture of chaperone proteins in MOPS buffer, resulting in a reaction mixture containing denatured luciferase (24 nM), DnaK (200 nM), DnaJ (100 nM) and GrpE (400 nM). The extent of refolding was determined by addition of a luciferase substrate and measurement of the emitted chemoluminescence. In this format the substrate is the commercially available luciferase “Steady-Glo” reagent from Promega, Inc. Inhibition of DnaK induced refolding was determined by premixing the chaperone proteins with the test agent at concentrations of test agent ranging from 1-100 μg/mL. The extent of refolding was compared to that with no test reagent, and the IC50 was estimated by fitting the data to a standard sigmoidal dose-response curve.
IC50 is defined as the concentration in μM at which 50% inhibition of DnaK induced refolding of denatured firefly luciferase occurs.

Another experiment has as its system E. coli (ATCC 25922). Nature of the experiment: Antibacterial activity against E. coli (MIC). The experiment is classed as cell-based. Particulars: Escherichia coli, ATCC25922.
Where [3] appears, read: Strain 109, HTM, 35° C., 20-24 hours, read-out: H. influenzae (Strain 109) MIC.
Setting [4] is: Strain 110, HTM, 35° C., 20-24 hours, read-out: H. influenzae (Strain 110) MIC.
[5] abbreviates: read-out: DnaK IC50(μg/ml) (converted).

Chain of DnaK (P0A6Y8 2-638): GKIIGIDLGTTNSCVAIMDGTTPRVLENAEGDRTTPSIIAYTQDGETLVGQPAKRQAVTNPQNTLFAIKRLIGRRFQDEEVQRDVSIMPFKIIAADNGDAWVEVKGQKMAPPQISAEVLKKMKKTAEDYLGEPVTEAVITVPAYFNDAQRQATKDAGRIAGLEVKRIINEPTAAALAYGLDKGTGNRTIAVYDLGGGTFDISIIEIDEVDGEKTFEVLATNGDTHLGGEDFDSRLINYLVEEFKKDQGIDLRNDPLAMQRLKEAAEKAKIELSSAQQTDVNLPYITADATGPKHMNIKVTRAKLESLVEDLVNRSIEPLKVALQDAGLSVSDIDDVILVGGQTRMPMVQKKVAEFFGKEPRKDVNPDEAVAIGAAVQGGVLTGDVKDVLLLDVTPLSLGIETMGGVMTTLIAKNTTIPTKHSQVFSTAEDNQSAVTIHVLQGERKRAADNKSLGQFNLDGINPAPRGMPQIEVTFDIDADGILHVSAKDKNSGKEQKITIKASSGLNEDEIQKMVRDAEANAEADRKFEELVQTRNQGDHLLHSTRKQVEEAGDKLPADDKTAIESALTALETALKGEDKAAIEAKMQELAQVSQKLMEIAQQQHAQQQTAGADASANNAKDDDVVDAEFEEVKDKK

For `COC(=O)[C@@H]1CCCN1C(=O)[C@H](CC(C)C)NC(=O)[C@H](Cc1ccc(OCc2ccccc2)cc1)NC(C)=O` [Structure 2, Ac-Tyr(Bzl)-Leu-Pro-OMe] (Ac-Tyr(Bn)-Leu-Pro-OMe), the figures for the MIC in experiment [1] (setting [3]) and in experiment [2] (setting [4]) were 32 µg/mL (≈ 59.5 µM) and over 128 µg/mL, respectively. Also, the “inhibition of H. influenzae strain 109 compared with the control pyrrhocoricin” value in experiment [1] is on record as “lower concentration than the control”. Further, the IC50 at DnaK (read-out: DnaK IC50) was 63 µM; on DnaK (setting [5]), 219 µM.

`CC(=O)N[C@@H](Cc1ccc(OCc2ccccc2)cc1)C(=O)N[C@@H](CC(C)C)C(=O)N1CCC[C@H]1C(=O)O` [Structure 3, Ac-Tyr(Bzl)-Leu-Pro-OH] (Ac-Tyr(Bn)-Leu-Pro-OH): the MIC in experiment [1] (read-out: H. influenzae (Strain 109) MIC (μg/ml)) is 32 µg/mL (≈ 61.1 µM); in experiment [2] (read-out: H. influenzae (Strain 110) MIC (μg/ml)) it was 64 µg/mL (≈ 122 µM). Also, the “inhibition of H. influenzae strain 109 compared with the control pyrrhocoricin” value in experiment [1] was “surpasses that of pyrrhocoricin”. For the same compound, the “inhibition of H. influenzae strain 110 compared with the control pyrrhocoricin” value in experiment [2] (strain 110) was “surpasses that of pyrrhocoricin”. The IC50 at DnaK (read-out: DnaK IC50) is 110 µM; at DnaK (setting [5]), 399 µM.

On to `COC(=O)[C@@H]1CCCN1C(=O)[C@H](CC(C)C)NC(=O)[C@H](Cc1ccc(F)cc1)NC(C)=O` [Structure 10, Ac(4-F)Phe-Leu-Pro-OMe] (Ac-[Phe(4-F)]-Leu-Pro-OMe), for which the MIC was 32 µg/mL (≈ 71.2 µM) in experiment [1] (setting [3]) and over 128 µg/mL in experiment [2] (setting [4]). The “inhibition of H. influenzae strain 109 compared with the control pyrrhocoricin” value in experiment [1] is given as “lower concentration than the control”. The values for the IC50 at DnaK (read-out: DnaK IC50) and on DnaK (setting [5]) were 26 µM and 127 µM, respectively.

Take `CC(=O)N[C@@H](Cc1ccc(F)cc1)C(=O)N[C@@H](CC(C)C)C(=O)N1CCC[C@H]1C(=O)O` [Structure 11] (Ac-[Phe(4-F)]-Leu-Pro-OH): the MIC in experiment [1] (setting [3]) was 4 µg/mL (≈ 9.18 µM); in experiment [2] (setting [4]), over 128 µg/mL. Moreover, the “inhibition of H. influenzae strain 109 compared with the control pyrrhocoricin” value in experiment [1] is reported as “lower concentration than the control”. The IC50 at DnaK (read-out: DnaK IC50) is 69 µM; on DnaK (setting [5]) it was 363 µM.

Regarding `CCC(C)[C@H](NC(C)=O)C(=O)N[C@@H](CCCCNC(=O)OCc1ccccc1)C(=O)N1CCC[C@H]1C(=O)O` (some centres unmarked) [Structure 22, Ac-Ile-Lys(Cbz)-Pro-OH], the MIC in experiment [1] (setting [3]) was 2 µg/mL (≈ 3.75 µM); in experiment [2] (setting [4]), over 128 µg/mL. In experiment [1], the “inhibition of H. influenzae strain 109 compared with the control pyrrhocoricin” value is “lower concentration than the control”. Besides, the IC50 on DnaK (read-out: DnaK IC50) is 14 µM; on DnaK (setting [5]), 50.7 µM.

For the compound `CCCCCCCC(=O)N[C@@H](Cc1ccc(OCc2ccccc2)cc1)C(=O)N[C@@H](CC(C)C)C(=O)N1CCC[C@H]1C(=O)N1CC[C@H](NC(=N)N)C1` [Structure 29, Octanoyl-Tyr(Bzl)-Leu-Pro-(S)-(3-guanidino)pyrrolidinyl amide], the IC50 was 10 µM at DnaK (read-out: DnaK IC50) and 11.1 µM at DnaK (setting [5]). This compound also showed an MIC in the experiment with E. coli (ATCC 25922) of 32 mg/L (≈ 44.6 µM).

On to `CCCCCCCC(=O)N[C@@H](Cc1ccc(OCc2ccccc2)cc1)C(=O)N[C@@H](CC(C)C)C(=O)N1CCC[C@H]1C(=O)NCCNC(=N)N` [Structure 30, Octanoyl-Tyr(Bzl)-Leu-Pro-NH(CH2)2 NH—C(═NH)—NH2 trifluoroacetate], for which the IC50 at DnaK (read-out: DnaK IC50) was 19 µM; at DnaK (setting [5]) it was 21.7 µM. The MIC against E. coli (ATCC 25922) stood at 32 mg/L.

Take `CCCCCCCC(=O)N[C@@H](Cc1ccc(OCc2ccccc2)cc1)C(=O)N[C@@H](CC(C)C)C(=O)N1C[C@H](O)C[C@H]1C(=O)N[C@H](CCCNC(=N)N)C(=O)N1CCCCC1` [Structure 32, Octanoyl-Tyr(Bzl)-Leu-Hyp-ArgN(CH2)5 trifluoroacetate] (Octanoyl-Y(Bn)L[Hyp][dR]-Piperidide): the IC50 on DnaK (read-out: DnaK IC50) was 12 µM; on DnaK (setting [5]), 14.2 µM. This compound also came in with an MIC in the experiment on E. coli (ATCC 25922) of 64 mg/L.

Turning to `CCCCCCCC(=O)N[C@@H](Cc1ccc(OCc2ccccc2)cc1)C(=O)N[C@@H](CC(C)C)C(=O)N1CCC[C@H]1C(=O)N1CCCC(CNC(=N)N)C1` (stereo partly drawn) [Structure 33, Octanoyl-Tyr(Bzl)-Leu-Pro-(3-guanidinomethylpiperidine) trifluoroacetate], the IC50 was 23 µM on DnaK (read-out: DnaK IC50) and 26.8 µM at DnaK (setting [5]). The MIC with E. coli (ATCC 25922) amounted to 16 mg/L.
